Assay results as given in the NIST ThermoML archive (doi:10.1016/j.tca.2013.07.012).

Experiment: xn = mol fraction of the nth substance listed
Details: 101 kPa, Liquid, Vibrating tube method

OCC(O)CO [glycerol] + O
Details	mass density [kg/m3]
274.15 K, x1 = 0.00209	1002.52
274.15 K, x1 = 0.00439	1005.4
274.15 K, x1 = 0.0051	1006.27
274.15 K, x1 = 0.00657	1008.08
274.15 K, x1 = 0.01072	1013.09
274.15 K, x1 = 0.01633	1019.67
275.15 K, x1 = 0.00209	1002.55
275.15 K, x1 = 0.00439	1005.42
275.15 K, x1 = 0.0051	1006.29
275.15 K, x1 = 0.00657	1008.09
275.15 K, x1 = 0.01072	1013.08
275.15 K, x1 = 0.01633	1019.63
276.15 K, x1 = 0.00209	1002.56
276.15 K, x1 = 0.00439	1005.42
276.15 K, x1 = 0.0051	1006.29
276.15 K, x1 = 0.00657	1008.08
276.15 K, x1 = 0.01072	1013.06
276.15 K, x1 = 0.01633	1019.58
277.15 K, x1 = 0.00209	1002.56
277.15 K, x1 = 0.00439	1005.41
277.15 K, x1 = 0.0051	1006.27
277.15 K, x1 = 0.00657	1008.06
277.15 K, x1 = 0.01072	1013.02
277.15 K, x1 = 0.01633	1019.51
278.15 K, x1 = 0.00209	1002.54
278.15 K, x1 = 0.00439	1005.38
278.15 K, x1 = 0.0051	1006.24
278.15 K, x1 = 0.00657	1008.02
278.15 K, x1 = 0.01072	1012.95
278.15 K, x1 = 0.01633	1019.43
278.15 K, x1 = 0.03504	1039.54
278.15 K, x1 = 0.05086	1054.94
278.15 K, x1 = 0.06775	1069.92
278.15 K, x1 = 0.1127	1103.61
278.15 K, x1 = 0.1559	1129.3
278.15 K, x1 = 0.206	1153.22
278.15 K, x1 = 0.256	1172.3
278.15 K, x1 = 0.3311	1194.33
278.15 K, x1 = 0.4012	1210
278.15 K, x1 = 0.4907	1225.46
278.15 K, x1 = 0.5828	1237.72
278.15 K, x1 = 0.6857	1248.63
278.15 K, x1 = 0.7494	1254.28
278.15 K, x1 = 0.8101	1259.12
278.15 K, x1 = 0.8528	1262.2
278.15 K, x1 = 0.882	1264.21
278.15 K, x1 = 0.9143	1266.2
278.15 K, x1 = 0.9408	1267.71
278.15 K, x1 = 0.9578	1268.67
278.15 K, x1 = 0.9792	1269.86
278.15 K, x1 = 0.9895	1270.39
278.15 K, x1 = 1	1270.87
279.15 K, x1 = 0.00209	1002.51
279.15 K, x1 = 0.00439	1005.34
279.15 K, x1 = 0.0051	1006.19
279.15 K, x1 = 0.00657	1007.97
279.15 K, x1 = 0.01072	1012.88
279.15 K, x1 = 0.01633	1019.34
280.15 K, x1 = 0.00209	1002.46
280.15 K, x1 = 0.00439	1005.28
280.15 K, x1 = 0.0051	1006.13
280.15 K, x1 = 0.00657	1007.91
280.15 K, x1 = 0.01072	1012.8
280.15 K, x1 = 0.01633	1019.23
281.15 K, x1 = 0.00209	1002.4
281.15 K, x1 = 0.00439	1005.21
281.15 K, x1 = 0.0051	1006.06
281.15 K, x1 = 0.00657	1007.82
281.15 K, x1 = 0.01072	1012.7
281.15 K, x1 = 0.01633	1019.12
282.15 K, x1 = 0.00209	1002.33
282.15 K, x1 = 0.00439	1005.13
282.15 K, x1 = 0.0051	1005.97
282.15 K, x1 = 0.00657	1007.73
282.15 K, x1 = 0.01072	1012.6
282.15 K, x1 = 0.01633	1018.99
283.15 K, x1 = 0.00209	1002.24
283.15 K, x1 = 0.00439	1005.03
283.15 K, x1 = 0.0051	1005.87
283.15 K, x1 = 0.00657	1007.62
283.15 K, x1 = 0.01072	1012.47
283.15 K, x1 = 0.01633	1018.85
288.15 K, x1 = 0.00209	1001.6
288.15 K, x1 = 0.00439	1004.35
288.15 K, x1 = 0.0051	1005.18
288.15 K, x1 = 0.00657	1006.91
288.15 K, x1 = 0.01072	1011.69
288.15 K, x1 = 0.01633	1017.97
288.15 K, x1 = 0.03504	1037.45
288.15 K, x1 = 0.05086	1052.38
288.15 K, x1 = 0.06775	1066.9
288.15 K, x1 = 0.1127	1099.65
288.15 K, x1 = 0.1559	1124.77
288.15 K, x1 = 0.206	1148.15
288.15 K, x1 = 0.256	1166.85
288.15 K, x1 = 0.3311	1188.67
288.15 K, x1 = 0.4012	1204.31
288.15 K, x1 = 0.4907	1219.67
288.15 K, x1 = 0.5828	1231.79
288.15 K, x1 = 0.6857	1242.54
288.15 K, x1 = 0.7494	1248.04
288.15 K, x1 = 0.8101	1252.82
288.15 K, x1 = 0.8528	1255.81
288.15 K, x1 = 0.882	1257.79
288.15 K, x1 = 0.9143	1259.78
288.15 K, x1 = 0.9408	1261.27
288.15 K, x1 = 0.9578	1262.21
288.15 K, x1 = 0.9792	1263.39
288.15 K, x1 = 0.9895	1263.91
288.15 K, x1 = 1	1264.4
293.15 K, x1 = 0.00209	1000.68
293.15 K, x1 = 0.00439	1003.39
293.15 K, x1 = 0.0051	1004.21
293.15 K, x1 = 0.00657	1005.92
293.15 K, x1 = 0.01072	1010.64
293.15 K, x1 = 0.01633	1016.84
293.15 K, x1 = 0.03504	1036.06
293.15 K, x1 = 0.05086	1050.82
293.15 K, x1 = 0.06775	1065.15
293.15 K, x1 = 0.1127	1097.5
293.15 K, x1 = 0.1559	1122.35
293.15 K, x1 = 0.206	1145.51
293.15 K, x1 = 0.256	1164.09
293.15 K, x1 = 0.3311	1185.75
293.15 K, x1 = 0.4012	1201.28
293.15 K, x1 = 0.4907	1216.63
293.15 K, x1 = 0.5828	1228.62
293.15 K, x1 = 0.6857	1239.29
293.15 K, x1 = 0.7494	1244.78
293.15 K, x1 = 0.8101	1249.51
293.15 K, x1 = 0.8528	1252.47
293.15 K, x1 = 0.882	1254.43
293.15 K, x1 = 0.9143	1256.38
293.15 K, x1 = 0.9408	1257.87
293.15 K, x1 = 0.9578	1258.81
293.15 K, x1 = 0.9792	1259.97
293.15 K, x1 = 0.9895	1260.49
293.15 K, x1 = 1	1260.99
298.15 K, x1 = 0.00209	999.49
